This is an account of results in PubChem BioAssay (NCI).

Experiment in all cases: NCI-60 cell line screen, 48 h
Assay [1] has as its system BT-549 breast.
The subject of assay [2] is COLO 205 colon.
The subject of assay [3] is HT29 colon.
For assay [4], the system named is IGROV1 ovarian.
Assay [5] has as its system M14 melanoma.
For assay [6], the system named is MCF7 breast.
The test system of assay [7] is MDA-MB-435.
Assay [8] relates to OVCAR-3 ovarian.
The subject of assay [9] is SF-268 CNS.
In assay [10] the test system is SF-295 CNS.
Assay [11] deals with SF-539 CNS.
The subject of assay [12] is SK-MEL-2 melanoma.
Assay [13] has as its system SK-MEL-28 melanoma.
In assay [14] the test system is SNB-19 CNS.
In assay [15] the test system is SNB-75 CNS.
The test system of assay [16] is UACC-62 melanoma.
The test system of assay [17] is UO-31 renal.
For assay [18], the system named is NCI-H23 lung.
For assay [19], the system named is CCRF-CEM leukemia.

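Each compound was tested at five concentrations against cells in 96-well plates for 48 hours. TGI: total growth inhibition.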

On to `Cc1cccc(-c2cccc(COCc3cccc(-c4cccc(CO)n4)n3)n2)n1`, for which the TGI in assay [1], in assay [2], in assay [3], in [4], in assay [5] and in [6] was over 50 µM throughout. Also, the TGI was over 50 µM in [7]; over 50 µM in assay [8]; over 50 µM in assay [9]; over 5 µM in assay [10]; over 50 µM in assay [11]; over 50 µM in [12]. Besides, the TGI in assay [13], in assay [14], in [15], in [16] and in assay [17] was over 50 µM each time.

Consider `CC(=O)OC(=C(C#N)C#N)c1nccnc1C(=O)O`, for which the TGI in assay [1], in assay [2], in assay [3], in assay [4], in assay [5] and in assay [6] was over 100 µM throughout. The TGI in [7], in [18], in assay [8], in assay [9], in [10] and in assay [11] was over 100 µM throughout. Also, the TGI in assay [12], in [13], in assay [14], in assay [15], in assay [16] and in assay [17] was over 100 µM in each case.

In the case of `O=S(=O)(Nc1nc2ccccc2nc1Nc1cccc2ccccc12)c1ccccc1`, the TGI was over 100 µM in [1]; over 100 µM in assay [4]; over 100 µM in assay [5]; over 100 µM in assay [6]; over 100 µM in assay [7]; 64.4 µM in assay [18]. Further, the TGI in assay [8], in assay [9], in assay [10], in [11], in assay [12] and in assay [13] was over 100 µM in each case. Further, the TGI in assay [14] was 61.2 µM; in [15] it was 57.6 µM; in assay [16], over 100 µM; in [17] it was over 100 µM.

As to `Cc1cc(C)c(-n2c(C)c(C)c(C#N)c2N)c(C)c1`, the TGI in [1] is over 100 µM; in [19], 45.5 µM; in assay [2], 38.9 µM; in assay [3], over 100 µM; in assay [4], over 100 µM; in assay [5] it was over 100 µM. The TGI in [7] is over 100 µM; in assay [18] it was over 100 µM; in assay [8], over 100 µM; in assay [9], over 100 µM; in assay [10] it was over 100 µM; in assay [11], 69.8 µM. For the same molecule, the TGI is 51.7 µM in assay [12]; over 100 µM in assay [13]; over 100 µM in assay [14]; over 100 µM in assay [15]; over 100 µM in assay [17].

With `COc1ccc2c(c1)OCC1=C2Oc2ccccc2C1`, the TGI was 71.5 µM in [1]; 49.2 µM in assay [2]; 90 µM in [3]; over 100 µM in assay [4]; over 100 µM in [5]; 84.2 µM in assay [7]. Further, the TGI in assay [18] was over 100 µM; in assay [8], over 100 µM; in assay [9], over 100 µM; in assay [10] it was over 100 µM; in [11], 95.7 µM; in [12] it was 77.5 µM. The TGI was 42.5 µM in assay [15], over 100 µM in assay [16] and over 100 µM in assay [17].

Regarding `[N-]=[N+]=CC(=O)OC1CCc2ccccc21` (centres undefined), the TGI in [1], in assay [2], in assay [3], in assay [4], in [6] and in [7] was over 100 µM throughout. In addition, the TGI in assay [18], in assay [8], in assay [9], in [10], in assay [12] and in assay [13] was over 100 µM throughout. For the same molecule, the TGI in assay [14] is over 100 µM; in [16], over 100 µM; in assay [17], 29 µM.

Turning to `C=C1CC(COc2ccc3c(C)c(Cl)c(=O)oc3c2)(c2ccccc2)OC1=O` (centres undefined), the TGI in assay [1] was determined as 2.87 µM; in assay [2], 1.83 µM; in assay [3] it was 2.67 µM; in [4] it was 3.89 µM; in assay [5] it was 2.24 µM; in [6] it was 5.14 µM. Further, the TGI in assay [7] was 7.6 µM; in assay [18] it was 3.84 µM; in assay [8], 6.71 µM; in [9], 19 µM; in assay [10] it was 22.7 µM; in [11], 7.34 µM. The TGI in [12] was found to be 3.36 µM; in assay [13] it was 6.43 µM; in [14] it was 29.7 µM; in assay [15], 11.7 µM; in assay [16], 3.53 µM; in assay [17], 12.5 µM.

With `CC(C)C(C)C(O)C(O)C(C)C1CCC2C3COC(=O)C4CC(O)C(O)CC4(C)C3CCC12C` (centres undefined), the TGI in assay [1] is over 100 µM; in assay [19], 67.5 µM; in assay [2] it was over 100 µM; in assay [3], over 100 µM; in [4] it was over 100 µM; in [5], over 100 µM. Besides, the TGI in [6], in [7], in [18], in assay [9], in assay [10] and in assay [11] was over 100 µM each time. Moreover, the TGI in assay [12], in assay [13], in [14], in [16] and in assay [17] was over 100 µM in each case.

`c1ccc(C2(c3ccccc3)S/C(=C3/SC(c4ccccc4)(c4ccccc4)c4ccccc43)c3ccccc32)cc1`: the TGI in assay [1], in [19], in [2], in assay [3], in assay [4] and in [5] was over 100 µM throughout. Moreover, the TGI in assay [7], in assay [18], in assay [8], in assay [9], in assay [10] and in assay [11] was over 100 µM each time. For the same molecule, the TGI in assay [12], in assay [13], in [14], in assay [15], in assay [16] and in [17] was over 100 µM in each case.

For the molecule `CC(SC(=S)N(C)C)C(=O)Nc1nnc(-c2ccc(Cl)cc2)o1` (centres undefined), the TGI is over 100 µM in [1]; over 100 µM in assay [2]; 51.9 µM in assay [3]; over 100 µM in assay [4]; over 100 µM in [5]; over 100 µM in [6]. The TGI in [7], in assay [18], in [8], in assay [9], in [11] and in assay [12] was over 100 µM throughout. In addition, the TGI in assay [13], in [14], in assay [15], in assay [16] and in [17] was over 100 µM each time.

Take `COc1c(C(=O)/C(=N/Nc2cccc(Cl)c2)C(C)=O)c(O)c(OC)c2occc12`: the TGI in [19], in assay [2], in assay [3], in assay [4], in assay [5] and in [6] was over 100 µM each time. For the same molecule, the TGI in assay [7], in assay [18], in assay [8], in assay [9], in assay [10] and in assay [11] was over 100 µM each time. In addition, the TGI in assay [12], in assay [13], in assay [14], in assay [15], in assay [16] and in assay [17] was over 100 µM in each case.

For `S=C(Nc1ccc(Cl)cc1)c1ccc(CN2CCCCC2)s1`, the TGI came out at 79.3 µM in assay [1]; 12.5 µM in [19]; 14.2 µM in assay [2]; 19.5 µM in assay [3]; 8.82 µM in assay [4]; 26.7 µM in assay [5]. The TGI is 61.9 µM in assay [6]; 67.6 µM in assay [7]; 8.63 µM in [18]; over 100 µM in [8]; over 100 µM in [9]; over 100 µM in [11]. Moreover, the TGI in assay [12] was over 100 µM; in [13], 37.2 µM; in [16], 21.7 µM; in [17], 31.9 µM.

As for `O=C(c1ccc(-c2ccccc2)cc1)N(Cc1cccnc1)C(=S)N(Cc1cccnc1)C(=O)c1ccc(-c2ccccc2)cc1`, the TGI in assay [1], in [19], in assay [2], in assay [3], in [5] and in assay [6] was over 100 µM in each case. Besides, the TGI in [7], in assay [18], in assay [8], in [9], in assay [10] and in [11] was over 100 µM throughout. Besides, the TGI in assay [12], in assay [13], in assay [14], in assay [16] and in assay [17] was over 100 µM in each case.
